These results are taken from patent US9637469B2, “Pyridine derivative” (Teijin Pharma Limited, priority 2012, dated 2017).

By IC50 is commonly meant the concentration needed to halve the response being measured.

One experiment deals with T1, human URAT1 (Homo sapiens, UniProt Q96S37).
T1 construct: Full-length cDNA of human URAT1 (hURAT1)
T1 sequence (Q96S37 1-553): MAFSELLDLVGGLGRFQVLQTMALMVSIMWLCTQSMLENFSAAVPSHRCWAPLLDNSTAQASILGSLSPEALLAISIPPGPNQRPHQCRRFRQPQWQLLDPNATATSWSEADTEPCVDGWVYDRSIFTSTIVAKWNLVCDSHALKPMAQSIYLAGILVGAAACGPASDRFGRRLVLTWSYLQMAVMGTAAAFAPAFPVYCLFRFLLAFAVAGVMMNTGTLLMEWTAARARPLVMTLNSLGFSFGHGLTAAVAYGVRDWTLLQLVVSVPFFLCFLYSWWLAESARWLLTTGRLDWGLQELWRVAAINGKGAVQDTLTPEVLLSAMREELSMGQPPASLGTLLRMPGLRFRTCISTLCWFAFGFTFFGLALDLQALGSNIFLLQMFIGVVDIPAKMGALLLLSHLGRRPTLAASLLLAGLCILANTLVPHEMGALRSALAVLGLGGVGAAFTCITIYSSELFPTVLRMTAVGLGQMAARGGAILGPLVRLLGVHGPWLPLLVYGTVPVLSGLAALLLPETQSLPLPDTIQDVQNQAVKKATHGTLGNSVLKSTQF
The experiment can be described thus: Test for inhibition of uric acid transport using human URAT1-expressing cells.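 Further: three stars up to 0.2 µM two stars 0.2-2 µM one star 2-20 µM.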 The format is cell-based. Conditions: HEK 293 cells expressing human URAT1; 14C-labeled uric acid 25 μM; uptake 37° C. for 5 min. In a few lines: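 HEK293 cells stably transfected with full-length hURAT1, preincubated 10 min at 37 °C in HBSS with NaCl replaced by Na gluconate. Uptake of 25 μM ¹⁴C-uric acid with compound ran 5 min at 37 °C, then scintillation counting. IC50 derived from % of DMSO-control URAT1-specific uptake.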
In the case of `COc1nc(-c2cccnc2)n(Cc2cc(Cl)ccc2Cl)c1C(=O)O` [Compound A96, 1-(2,5-dichlorobenzyl)-4-methoxy-2-(pyridin-3-yl)-1H-imidazole-5-carboxylic acid], the “Inhibitory Activity (IC50 of uric acid transport inhibition)” value (shortened to “Inhibitory Activity”) was “* * *”. Same read-out and setting: the entry for `O=C(O)c1c(C(F)(F)F)nc(-c2cccnc2)n1Cc1cccc2ccsc12` [Compound A84, 1-(benzo[b]thiophen-7-ylmethyl)-2-(pyridin-3-yl)-4-(trifluoromethyl)-1H-imidazole-5-carboxylic acid] is “* *”; for `Cc1nc(-c2cccnc2)n(Cc2cc(Cl)ccc2F)c1C(=O)O` [Compound A42, 1-(5-chloro-2-fluorobenzyl)-4-methyl-2-(pyridin-3-yl)-1H-imidazole-5-carboxylic acid] it is “* *”; for `Cc1nc(-c2cccnc2)n(Cc2cc(F)cc(Cl)c2)c1C(=O)O` [Compound A76, 1-(3-chloro-5-fluorobenzyl)-4-methyl-2-(pyridin-3-yl)-1H-imidazole-5-carboxylic acid] it is “* *”.

Take `COc1cccc(-c2nc(C)c(C(=O)O)n2Cc2cccc3ccccc23)n1` [Compound A240, 2-(6-methoxypyridin-2-yl)-4-methyl-1-(naphthalen-1-ylmethyl)-1H-imidazole-5-carboxylic acid]: the “Inhibitory Activity” value is listed as “* *”.

On to `O=C(O)c1ccc(-c2cccnc2)n1Cc1csc2ccccc12` [Compound B8, 1-(benzo[b]thiophen-3-ylmethyl)-2-(pyridin-3-yl)-1H-pyrrole-5-carboxylic acid], for which the “Inhibitory Activity” value is on record as “* * *”.

For the compound `CC(C)c1nc(-c2cncc(F)c2)n(Cc2cc(Cl)ccc2Cl)c1C(=O)O` [Compound A154, 1-(2,5-dichlorobenzyl)-2-(5-fluoropyridin-3-yl)-4-isopropyl-1H-imidazole-5-carboxylic acid], the “Inhibitory Activity” value was “* * *”. On the same count and under the same terms, the entry for `Cc1ccc(Cl)c(Cn2c(-c3cncc(Cl)c3)nc(C)c2C(=O)O)c1` [Compound A232, 1-(2-chloro-5-methylbenzyl)-2-(5-chloropyridin-3-yl)-4-methyl-1H-imidazole-5-carboxylic acid] is “* * *”.

Regarding `Cc1nc(-c2cccnc2)n(Cc2cccc(Cl)c2Cl)c1C(=O)O` [Compound A70, 1-(2,3-dichlorobenzyl)-4-methyl-2-(pyridin-3-yl)-1H-imidazole-5-carboxylic acid], the “Inhibitory Activity” value is recorded as “* *”. For the compound `O=C(O)c1ccc(-c2cccnc2)n1Cc1csc2cccc(C(F)(F)F)c12` [Compound B9, 2-(pyridin-3-yl)-1-((4-(trifluoromethyl)benzo[b]thiophen-3-yl)methyl)-1H-pyrrole-5-carboxylic acid], the “Inhibitory Activity” value is “* * *”. The same measure, in the same setting: the entry for `O=C(O)c1c(C(F)(F)F)nc(-c2cccnc2)n1Cc1csc2ccccc12` [Compound A22, 1-(benzo[b]thiophen-3-ylmethyl)-2-(pyridin-3-yl)-4-(trifluoromethyl)-1H-imidazole-5-carboxylic acid] is “* *”; for `CCS(=O)(=O)N1CCN(Cc2nc(-c3cncc(Cl)c3)n(Cc3cc(Cl)ccc3Cl)c2C(=O)O)CC1` [Compound A204, 2-(5-chloropyridin-3-yl)-1-(2,5-dichlorobenzyl)-4-((4-(ethylsulfonyl)piperazin-1-yl)methyl)-1H-imidazole-5-carboxylic acid] it is “* * *”. Still for that read-out and setting: the entry for `Cc1nc(-c2ccccn2)n(Cc2cc(Cl)ccc2Cl)c1C(=O)O` [Compound A245, 1-(2,5-dichlorobenzyl)-4-methyl-2-(pyridin-2-yl)-1H-imidazole-5-carboxylic acid] is “* * *”; for `Cc1ccc(Cn2c(-c3cccnc3)nc(Cl)c2C(=O)O)c2ccccc12` [Compound A23, 4-chloro-1-((4-methylnaphthalen-1-yl)methyl)-2-(pyridin-3-yl)-1H-imidazole-5-carboxylic acid] it is “* *”; for `CC(C)c1nc(-c2cncc(Cl)c2)n(Cc2cc(Cl)ccc2Cl)c1C(=O)O` [Compound A146, 2-(5-chloropyridin-3-yl)-1-(2,5-dichlorobenzyl)-4-isopropyl-1H-imidazole-5-carboxylic acid] it is “* * *”. The same measure, in the same setting: the entry for `Cc1cncc(-c2nc(C)c(C(=O)O)n2Cc2cc(C)ccc2C)c1` [Compound A180, 1-(2,5-dimethylbenzyl)-4-methyl-2-(5-methylpyridin-3-yl)-1H-imidazole-5-carboxylic acid] is “* * *”. In the case of `Cc1ccc(C)c(Cn2c(-c3cncc(F)c3)nc(C)c2C(=O)O)c1` [Compound A178, 1-(2,5-dimethylbenzyl)-2-(5-fluoropyridin-3-yl)-4-methyl-1H-imidazole-5-carboxylic acid], the “Inhibitory Activity” value is listed as “* *”. The same measure, in the same setting: the entry for `O=C(O)c1c(C2CC2)nc(-c2cccnc2)n1Cc1csc2ccccc12` [Compound A36, 1-(benzo[b]thiophen-3-ylmethyl)-4-cyclopropyl-2-(pyridin-3-yl)-1H-imidazole-5-carboxylic acid] is “* *”; for `Cc1nc(-c2cncc(F)c2)n(Cc2csc3ccccc23)c1C(=O)O` [Compound A133, 1-(benzo[b]thiophen-3-ylmethyl)-2-(5-fluoropyridin-3-yl)-4-methyl-1H-imidazole-5-carboxylic acid] it is “* *”; for `CCCOc1cncc(-c2nc(C)c(C(=O)O)n2Cc2cc(Cl)ccc2Cl)c1` [Compound A185, 1-(2,5-dichlorobenzyl)-4-methyl-2-(5-propoxypyridin-3-yl)-1H-imidazole-5-carboxylic acid] it is “* * *”.

For the compound `O=C(O)c1c(-c2ccccc2)nc(-c2cccnc2)n1Cc1cc(Cl)ccc1Cl` [Compound A91, 1-(2,5-dichlorobenzyl)-4-phenyl-2-(pyridin-3-yl)-1H-imidazole-5-carboxylic acid], the “Inhibitory Activity” value is listed as “* * *”. Take `O=C(O)c1ccc(-c2cccnc2)n1Cc1cccc2ccsc12` [Compound B20, 1-(benzo[b]thiophen-7-ylmethyl)-2-(pyridin-3-yl)-1H-pyrrole-5-carboxylic acid]: the “Inhibitory Activity” value was “* * *”. Still for that read-out and setting: the entry for `Cc1ccncc1Oc1nc(C)c(C(=O)O)n1Cc1cc(Cl)ccc1Cl` [Compound A256, 1-(2,5-dichlorobenzyl)-4-methyl-2-((4-methylpyridin-3-yl)oxy)-1H-imidazole-5-carboxylic acid] is “* * *”; for `CC(C)c1nc(-c2cncc(F)c2)n(Cc2cccc3ccccc23)c1C(=O)O` [Compound A152, 2-(5-fluoropyridin-3-yl)-4-isopropyl-1-(naphthalen-1-ylmethyl)-1H-imidazole-5-carboxylic acid] it is “* *”; for `O=C(O)c1c(C(F)(F)F)nc(-c2cccnc2)n1Cc1csc2cccc(Cl)c12` [Compound A27, 1-((4-chlorobenzo[b]thiophen-3-yl)methyl)-2-(pyridin-3-yl)-4-(trifluoromethyl)-1H-imidazole-5-carboxylic acid] it is “* *”. Same read-out and setting: the entry for `O=C(O)c1c(C(F)F)nc(-c2cncc(Cl)c2)n1Cc1cc(Cl)ccc1Cl` [Compound A207, 2-(5-chloropyridin-3-yl)-1-(2,5-dichlorobenzyl)-4-(difluoromethyl)-1H-imidazole-5-carboxylic acid] is “* * *”; for `O=C(O)c1c(C2CC2)nc(-c2cccnc2)n1Cc1csc2cccc(Br)c12` [Compound A34, 1-((4-bromobenzo[b]thiophen-3-yl)methyl)-4-cyclopropyl-2-(pyridin-3-yl)-1H-imidazole-5-carboxylic acid] it is “* *”.

Still in this experiment, the particulars now being: HEK 293 cells expressing human URAT1; 14C-labeled uric acid 25 μM; uptake 37° C. for 5 min; read-out: Inhibitory Activity (IC50 of uric acid transport inhibition).
As to `O=C(O)c1c(C(F)(F)F)nc(-c2cccnc2)n1Cc1cccc2cccc(Br)c12` [Compound A28], the IC50 fell in the range of 2 to 20 µM. The same measure, in the same setting: the figure for `Cc1cccc2cccc(Cn3c(-c4cccnc4)nc(C(F)(F)F)c3C(=O)O)c12` [Compound A30] is 2 to 20 µM; for `Cc1nc(-c2cccnc2)n(Cc2ccc(F)cc2Cl)c1C(=O)O` [Compound A73] it is 2 to 20 µM. In the case of `Cc1nc(-c2cccnc2)n(Cc2cccc(Cl)c2F)c1C(=O)O` [Compound A74], the IC50 fell in the range of 2 to 20 µM. On to `Cc1nc(-c2cccnc2)n(C(C)c2cc(Cl)ccc2Cl)c1C(=O)O` (stereo not drawn) [Compound A87], for which the IC50 was 2 to 20 µM. Same read-out and setting: the figure for `CC(C)(Sc1ncc(-c2cncc(F)c2)n1Cc1cc(Cl)ccc1Cl)C(=O)O` [Compound A265] is 2 to 20 µM.
